Assay results taken from US9695155B2, “Herbicidal substituted pyrimidinyloxy benzene compounds” (E. I. DU PONT DE NEMOURS AND COMPANY, priority 2013, dated 2017).

Key:
wheat, winter = experiment: Test C postemergence; assay type: in vivo, Triticum aestivum; conditions: for Plant response rating (0 to 100), Wheat: 16 g ai/ha, 0 is no effect, 100 is complete control
Procedure, shortened: (§1)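 Visual ratings on a 0–100 scale (100 = complete control) were made versus untreated controls after 13–15 greenhouse days. Chemicals in a surfactant-containing non-phytotoxic solvent were applied either preemergence to seeds in loam–sand soil or postemergence to 1- to 4-leaf plants 2–18 cm tall.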

waterhemp = experiment: Test C postemergence; assay type: in vivo, Amaranthus rudis; conditions: for Plant response rating (0 to 100), Waterhemp: 16 g ai/ha, 0 is no effect, 100 is complete control
Source text: Seeds of plant species selected from blackgrass (Alopecurus myosuroides), Italian ryegrass (Lolium multiflorum), wheat, winter (winter wheat, Triticum aestivum), galium (catchweed bedstraw, Galium aparine), corn (Zea mays), large (Lg) crabgrass (Digitaria sanguinalis), giant foxtail (Setaria faberii), johnsongrass (Sorghum halepense), lambsquarters (Chenopodium album), morningglory (Ipomoea coccinea), yellow nutsedge (Cyperus esculentus), pigweed (Amaranthus retroflexus), ragweed (common ragweed, Ambrosia elatior), soybean (Glycine max), barnyardgrass (Echinochloa crus-galli), oilseed rape (Brassica napus), waterhemp (common waterhemp, Amaranthus rudis), kochia (Kochia scoparia), wild oat (Avena fatua), surinam grass (Brachiaria decumbens), foxtail, green (green foxtail, Setaria viridis), goosegrass (Eleusine indica), bromegrass, downy (downy bromegrass, Bromus tectorum), nightshade (eastern black nightshade, Solanum ptycanthum), cocklebur (common cocklebur, Xanthium strumarium), cupgrass, woolly (woolly cupgrass, Eriochloa villosa), bermudagrass (Cynodon dactylon), sunflower, (common oilseed sunflower, Helianthus annuus), Russian thistle (Salsola kali), and velvetleaf (Abutilon theophrasti) were planted into a blend of loam soil and sand and treated preemergence with test chemicals formulated in a non-phytotoxic solvent mixture which included a surfactant.
At the same time, plants selected from these crop and weed species and also barley, winter (winter barley, Hordeum vulgare), windgrass (Apera spica-venti), chickweed (common chickweed, Stellaria media), deadnettle (henbit deadnettle, Lamium amplexicaule), and canarygrass (littleseed canarygrass, Phalaris minor) were planted in pots containing Redi-Earth® planting medium (Scotts Company, 14111 Scottslawn Road, Marysville, Ohio 43041) comprising spaghnum peat moss, vermiculite, wetting agent and starter nutrients and treated with postemergence applications of test chemicals formulated in the same manner. Plants ranged in height from 2 to 18 cm (1- to 4-leaf stage) for postemergence treatments. Treated plants and controls were maintained in a greenhouse for 13 to 15 days, after which time all species were compared to controls and visually evaluated. Plant response ratings, summarized in Table C, are based on a scale of 0 to 100 where 0 is no effect and 100 is complete control. A dash (-) response means no test result.

large (Lg) crabgrass = experiment: Test C postemergence; assay type: in vivo, Digitaria sanguinalis; conditions: for Plant response rating (0 to 100), Crabgrass, Large: 16 g ai/ha, 0 is no effect, 100 is complete control
Procedure, shortened: as §1

corn = experiment: Test C postemergence; assay type: in vivo, Zea mays; conditions: for Plant response rating (0 to 100), Corn: 16 g ai/ha, 0 is no effect, 100 is complete control
Procedure, shortened: as §1

chickweed = experiment: Test C postemergence; assay type: in vivo, Stellaria media; conditions: for Plant response rating (0 to 100), Chickweed: 16 g ai/ha, 0 is no effect, 100 is complete control
Procedure, shortened: as §1

barnyardgrass [1] = experiment: Test C postemergence; assay type: in vivo, Echinochloa crus-galli; conditions: for Plant response rating (0 to 100), Barnyardgrass: 16 g ai/ha, 0 is no effect, 100 is complete control
Procedure, shortened: as §1

barnyardgrass [2] = experiment: Test B flooded paddy test; assay type: in vivo, Echinochloa crus-galli; conditions: Flood, 250 g ai/ha; 0 to 100 scale where 0 is no effect and 100 is complete control
Procedure, shortened: (§2)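 Compound added straight to paddy water, with pots kept flooded 3 cm above soil, on plants grown to the 2-leaf stage. Visual scoring 0-100 (100 = complete control) against untreated controls after 13 to 15 greenhouse days.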

sedge, umbrella = experiment: Test B flooded paddy test; assay type: in vivo, Cyperus difformis; conditions: Flood, 250 g ai/ha; 0 to 100 scale where 0 is no effect and 100 is complete control
Procedure, shortened: as §2

lambsquarters = experiment: Test C postemergence; assay type: in vivo, Chenopodium album; conditions: for Plant response rating (0 to 100), Lambsquarters: 16 g ai/ha, 0 is no effect, 100 is complete control
Procedure, shortened: as §1

giant foxtail = experiment: Test C postemergence; assay type: in vivo, Setaria faberii; conditions: for Plant response rating (0 to 100), Foxtail, Giant: 16 g ai/ha, 0 is no effect, 100 is complete control
Procedure, shortened: as §1

[3] = 31 g ai/ha, postemergence, visual rating, scale 0 to 100 (0 no effect, 100 complete control), 13 to 15 days
[4] = 125 g ai/ha, postemergence, visual rating, scale 0 to 100 (0 no effect, 100 complete control)
[5] = Postemergence, 62 g ai/ha, scale 0 to 100 (0 no effect, 100 complete control)

SMILES | Plant response rating (0 to 100), Wheat (wheat, winter; postemergence) | Plant response rating, Wheat (wheat, winter; [4]) | Plant response rating, Wheat (wheat, winter; [5]) | Plant response rating (0 to 100), Waterhemp (waterhemp; postemergence) | Plant response rating, Waterhemp (waterhemp; [4]) | Plant response rating, Waterhemp (waterhemp; [5]) | Plant response rating (0 to 100), Crabgrass, Large (large (Lg) crabgrass; postemergence) | Plant response rating, Crabgrass, Large (large (Lg) crabgrass; [4]) | Plant response rating, Crabgrass, Large (large (Lg) crabgrass; [5]) | Plant response rating (0 to 100), Corn (corn; postemergence) | Plant response rating, Corn (corn; [4]) | Plant response rating, Corn (corn; [5]) | Plant response rating (0 to 100), Chickweed (chickweed; postemergence) | Plant response rating, Chickweed (chickweed; [4]) | Plant response rating, Chickweed (chickweed; [5]) | Plant response rating (0 to 100), Barnyardgrass (barnyardgrass [1]; postemergence) | Plant response rating, Barnyardgrass (barnyardgrass [1]; [4]) | Plant response rating, Barnyardgrass (barnyardgrass [1]; [5]) | Plant response rating, Barnyardgrass (barnyardgrass [2]) | Plant response rating, Sedge, Umbrella (sedge, umbrella) | other results
Fc1cccc(Oc2ncc(Cl)cn2)c1-n1cc(C2CC2)nn1 [Compound 155] | 5 | 35 | 15 | 45 | 98 | 80 | 5 | 15 | 5 | 5 | 10 | 5 | 90 | 90 | 75 | 0 | 10 | 5 | 40 | 80 | Wheat plant response rating (wheat, winter; [3]): 10; Waterhemp plant response rating (waterhemp; [3]): 65; Crabgrass, Large plant response rating (large (Lg) crabgrass; [3]): 5; Corn plant response rating (corn; [3]): 5; Chickweed plant response rating (chickweed; [3]): 80; Barnyardgrass plant response rating (barnyardgrass [1]; [3]): 5; Plant response rating (0 to 100), Lambsquarters (lambsquarters; postemergence): 65; Lambsquarters plant response rating (lambsquarters; [3]): 90; Plant response rating, Lambsquarters (lambsquarters; [4]): 98; Plant response rating, Lambsquarters (lambsquarters; [5]): 98; Plant response rating (0 to 100), Foxtail, Giant (giant foxtail; postemergence): 0; Foxtail, Giant plant response rating (giant foxtail; [3]): 5; Plant response rating, Foxtail, Giant (giant foxtail; [4]): 25; Plant response rating, Foxtail, Giant (giant foxtail; [5]): 15
FCc1cccc(Oc2ncc(Br)cn2)c1-n1cc(C(F)(F)F)cn1 [Compound 120] | 0 | 0 | 0 | 75 | 85 | 80 | 5 | 10 | 10 | 5 | 10 | 5 | 40 | 80 | 70 | 5 | 10 | 10 | 0 | 95 | Plant response rating, Barnyardgrass (barnyardgrass [1]; Postemergence, 31 g ai/ha, scale 0 to 100 (0 no effect, 100 complete control), 13 to 15 days): 5; Plant response rating (0 to 100), Lambsquarters (lambsquarters; postemergence): 55; Plant response rating, Lambsquarters (lambsquarters; [4]): 85; Plant response rating, Lambsquarters (lambsquarters; [5]): 70; Plant response rating (0 to 100), Foxtail, Giant (giant foxtail; postemergence): 5; Plant response rating, Foxtail, Giant (giant foxtail; [4]): 35; Plant response rating, Foxtail, Giant (giant foxtail; [5]): 10
